Laboratory results: ChEMBL document CHEMBL1201862, “PubChem BioAssay data set” (2004)
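All cell lines were grown in 96-well plates and treated with compound for 48 hours. At the GI50, growth is halved.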 The source made the active and inactive calls. No stated cut-off is given here; in the data, active = GI50 up to about 1.1 µM and inactive = higher.

Assays:
Test in all cases: NCI anticancer screen, dose series, 48 h
[1] = test system: Malme-3M
[2] = test system: NCI-H522
[3] = test system: HT-29
[4] = test system: DLD-1
[5] = test system: HL-60
[6] = test system: EKVX
[7] = test system: DMS-273
[8] = test system: SNB-19
[9] = test system: SR
[10] = test system: CCRF-CEM
[11] = test system: A549
[12] = test system: OVCAR-4
[13] = test system: SN12C
[14] = test system: A498
[15] = test system: MCF7
[16] = test system: DU-145
[17] = test system: MDA-MB-435
[18] = test system: NCI/ADR-RES
[19] = test system: T47D
[20] = test system: MDA-N

Row | SMILES | GI50 [1] | GI50 [2] | GI50 [3] | GI50 [4] | GI50 [5] | GI50 [6] | GI50 [7] | GI50 [8] | GI50 [9] | GI50 [10] | GI50 [11] | GI50 [12] | GI50 [13] | GI50 [14] | GI50 [15] | GI50 [16] | GI50 [17] | GI50 [18] | GI50 [19] | GI50 [20]
1 | O=C1Nc2ccccc2Nc2nc3cccccc-3c21 | > 100 µM (inactive) | > 100 µM (inactive) | > 100 µM (inactive) | > 100 µM (inactive) | > 100 µM (inactive) | > 100 µM (inactive) | > 100 µM (inactive) | > 100 µM (inactive) | > 100 µM (inactive) | > 100 µM (inactive) | > 100 µM (inactive) | > 100 µM (inactive) | > 100 µM (inactive) |  |  |  |  |  |  | 
2 | Fc1ccc(C2SCc3nc4ccccc4n32)cc1 (centres undefined) | 25.8 µM (inactive) | 14.1 µM (inactive) | 47.9 µM (inactive) | 39.7 µM (inactive) | 22.3 µM (inactive) | 58.1 µM (inactive) |  | 6.1 µM (inactive) | 27 µM (inactive) | 42.1 µM (inactive) | 45.3 µM (inactive) | 36.3 µM (inactive) | 27 µM (inactive) |  |  |  |  |  |  | 
3 | CC(C)C12Cc3c(ccc4ccccc34)OC1(C)Oc1ccc3ccccc3c1C2 (centres undefined) | > 100 µM (inactive) | 63.7 µM (inactive) | > 100 µM (inactive) | > 100 µM (inactive) |  | 10.6 µM (inactive) | > 100 µM (inactive) | > 100 µM (inactive) | > 100 µM (inactive) | > 100 µM (inactive) | > 100 µM (inactive) | > 100 µM (inactive) | > 100 µM (inactive) |  |  |  |  |  |  | 
4 | Cc1ccc(Nc2nc(C)c(C(/C=C/c3ccc(/C=C/C(=N/NC(=O)C[n+]4ccccc4)c4sc(Nc5ccc(C)cc5[N+](=O)[O-])nc4C)cc3)=N\NC(=O)C[n+]3ccccc3)s2)c([N+](=O)[O-])c1 | > 100 µM (inactive) | > 100 µM (inactive) | > 100 µM (inactive) | 71.3 µM (inactive) | 27.4 µM (inactive) | 78.3 µM (inactive) | > 100 µM (inactive) | > 100 µM (inactive) | 67.3 µM (inactive) | 32.3 µM (inactive) | > 100 µM (inactive) | > 100 µM (inactive) | 55.8 µM (inactive) |  |  |  |  |  |  | 
5 | CCOC(=O)/C(C#N)=C/c1[nH]c(C)c(C)c1C | > 100 µM (inactive) | > 100 µM (inactive) | > 100 µM (inactive) | > 100 µM (inactive) | > 100 µM (inactive) | > 100 µM (inactive) | > 100 µM (inactive) | > 100 µM (inactive) |  | > 100 µM (inactive) | > 100 µM (inactive) | > 100 µM (inactive) | > 100 µM (inactive) | > 100 µM (inactive) |  |  |  |  |  | 
6 | NCCNCc1c2ccccc2c(CNCCN)c2ccccc12 | 14 µM (inactive) | 8.13 µM (inactive) | 6.21 µM (inactive) | 53.1 µM (inactive) | 20.4 µM (inactive) | 20.2 µM (inactive) |  |  | 4.18 µM (inactive) | 15.4 µM (inactive) | 12.1 µM (inactive) | > 10 µM (inactive) | 10.5 µM (inactive) | 22.3 µM (inactive) |  |  |  |  |  | 
7 | CCSc1nc2sc(C)c(C)c2c(=O)n1-c1ccc(C(=O)O)cc1 | > 100 µM (inactive) | 23.2 µM (inactive) | 61 µM (inactive) | 43.2 µM (inactive) | 35.3 µM (inactive) | 54 µM (inactive) |  | 31.1 µM (inactive) | 41.4 µM (inactive) | 52.5 µM (inactive) | 65.3 µM (inactive) | 71.8 µM (inactive) | 55.1 µM (inactive) | 29.9 µM (inactive) |  |  |  |  |  | 
8 | Cc1cc(N(CCC#N)CCC#N)ccc1/N=N/c1ccccc1[N+](=O)[O-] | > 100 µM (inactive) | > 100 µM (inactive) | > 100 µM (inactive) | > 100 µM (inactive) | > 100 µM (inactive) | > 100 µM (inactive) | > 100 µM (inactive) |  |  | > 100 µM (inactive) | > 100 µM (inactive) | > 100 µM (inactive) | > 100 µM (inactive) | > 100 µM (inactive) |  |  |  |  |  | 
9 | COc1cc([C@@H]2c3cc4c(cc3[C@@H](NCc3ccc(C#N)cc3)C3COC(=O)[C@@H]32)OCO4)cc(OC)c1O (some centres undefined) | 1.01 µM (active) | 1.09 µM (active) | 1.19 µM (inactive) | 1.33 µM (inactive) | 0.116 µM (active) | 1.98 µM (inactive) | 0.326 µM (active) | 0.621 µM (active) |  | 0.233 µM (active) | 0.0923 µM (active) | 20.8 µM (inactive) | 0.414 µM (active) | 1.07 µM (active) |  |  |  |  |  | 
10 | COc1ccc(NC(=O)CC(=O)NN2C(=O)/C(=C/c3ccc(N(CCC#N)CCC#N)cc3C)N=C2/C=C\c2ccccc2)cc1 | > 100 µM (inactive) | > 100 µM (inactive) | > 100 µM (inactive) | > 100 µM (inactive) | > 100 µM (inactive) |  |  | > 100 µM (inactive) | > 100 µM (inactive) | > 100 µM (inactive) | > 100 µM (inactive) | > 100 µM (inactive) | > 100 µM (inactive) | > 100 µM (inactive) |  |  |  |  |  | 
11 | Cc1cnc2ccc(C)c([N+](=O)[O-])c2c1NCCCN(C)C | > 100 µM (inactive) | > 100 µM (inactive) | > 100 µM (inactive) |  | > 100 µM (inactive) | > 100 µM (inactive) | > 100 µM (inactive) | > 100 µM (inactive) | > 100 µM (inactive) | > 100 µM (inactive) | > 100 µM (inactive) | > 100 µM (inactive) | > 100 µM (inactive) |  |  |  |  |  |  | 
12 | CCCCCCCCCCCCCC(=O)OC1CC(=O)OC1CO (centres undefined) | > 100 µM (inactive) |  | 32.1 µM (inactive) | 34.4 µM (inactive) | 23 µM (inactive) | > 100 µM (inactive) | > 100 µM (inactive) | 32.8 µM (inactive) |  | 25.5 µM (inactive) | 55.1 µM (inactive) | > 100 µM (inactive) | > 100 µM (inactive) | 77.6 µM (inactive) |  |  |  |  |  | 
13 | O=C(O)/C(Cl)=C(\Cl)C(=O)Nc1ccccc1 | > 100 µM (inactive) |  | > 100 µM (inactive) | > 100 µM (inactive) |  | > 100 µM (inactive) | > 100 µM (inactive) | > 100 µM (inactive) | > 100 µM (inactive) | 69.3 µM (inactive) | > 100 µM (inactive) | > 100 µM (inactive) | > 100 µM (inactive) | > 100 µM (inactive) |  |  |  |  |  | 
14 | COc1ccc(OC)c(-c2cc(O)c3cc4c(cc3n2)OCO4)c1 | 3.49 µM (inactive) | 2.85 µM (inactive) | 4.12 µM (inactive) | 3.57 µM (inactive) | 2.96 µM (inactive) | 37.4 µM (inactive) | 4.06 µM (inactive) | 18.5 µM (inactive) | 3.96 µM (inactive) | 4.36 µM (inactive) | 5.87 µM (inactive) | 35.6 µM (inactive) | 6.79 µM (inactive) |  |  |  |  |  |  | 
15 | O=S(=O)(C1=CC(S(=O)(=O)c2ccccc2)COC1)c1ccccc1 (centres undefined) | > 100 µM (inactive) | > 100 µM (inactive) | > 100 µM (inactive) | > 100 µM (inactive) | > 100 µM (inactive) | > 100 µM (inactive) | > 100 µM (inactive) | > 100 µM (inactive) | > 100 µM (inactive) | > 100 µM (inactive) | > 100 µM (inactive) | > 100 µM (inactive) | > 100 µM (inactive) |  |  |  |  |  |  | 
16 | CCOC(=O)C1C(=O)c2ccccc2CN1Cc1ccccc1 (centres undefined) | > 100 µM (inactive) | > 100 µM (inactive) | > 100 µM (inactive) | > 100 µM (inactive) | > 100 µM (inactive) | > 100 µM (inactive) | > 100 µM (inactive) | > 100 µM (inactive) | > 100 µM (inactive) | > 100 µM (inactive) | > 100 µM (inactive) | > 100 µM (inactive) | > 100 µM (inactive) |  |  |  |  |  |  | 
17 | C=CC[C@H](C)CCC(=O)N1[C@H]2CC3CC[C@@]2(CS1(=O)=O)C3(C)C | 46.8 µM (inactive) | 30.3 µM (inactive) | 18.8 µM (inactive) |  | 25.1 µM (inactive) | 51.1 µM (inactive) |  | 87.9 µM (inactive) | 31.5 µM (inactive) | 18.7 µM (inactive) | 39.8 µM (inactive) | 39.5 µM (inactive) | 85.5 µM (inactive) | > 100 µM (inactive) | 33.9 µM (inactive) | > 100 µM (inactive) | 47.2 µM (inactive) | 44.2 µM (inactive) | 42.6 µM (inactive) | 79.8 µM (inactive)
18 | CCC[C@H](C)[C@H]1NC(=O)[C@@H](NC(=O)[C@@H](CC(C)C)N(C)C(=O)C2CCCN2C(=O)[C@H](C)O)[C@@H](C)OC(=O)[C@H](CC(C)C)N(C)C(=O)[C@@H]2CCCN2C(=O)[C@H](CC(C)C)NC(=O)[C@@H](C)C(=O)[C@H](C(C)C)OC(=O)C[C@@H]1O (some centres undefined) | < 0.0025 µM (active) | < 0.0025 µM (active) | < 0.0025 µM (active) |  | < 0.0025 µM (active) | < 0.0025 µM (active) |  | < 0.0025 µM (active) | < 0.0025 µM (active) | < 0.0025 µM (active) | < 0.0025 µM (active) | < 0.0025 µM (active) | < 0.0025 µM (active) | 0.0115 µM (active) | < 0.0025 µM (active) | < 0.0025 µM (active) | < 0.0025 µM (active) | 0.189 µM (active) | < 0.0025 µM (active) | < 0.0025 µM (active)
19 | NC(Cc1c[nH]c2ccc([N+](=O)[O-])cc12)C(=O)O (centres undefined) | > 100 µM (inactive) | > 100 µM (inactive) | > 100 µM (inactive) |  | > 100 µM (inactive) | > 100 µM (inactive) |  | > 100 µM (inactive) | > 100 µM (inactive) | > 100 µM (inactive) | > 100 µM (inactive) | > 100 µM (inactive) | > 100 µM (inactive) | > 100 µM (inactive) | > 100 µM (inactive) | > 100 µM (inactive) | > 100 µM (inactive) | > 100 µM (inactive) | > 100 µM (inactive) | > 100 µM (inactive)
